Where “and” joins values, the source holds several entries; their conditions need not be identical. Equal entries are not always repeated.
Tested on: 292921-168-R-J2-PDC complex spheroid viability
Experiment: Anticancer human tumor 292921-168-R-J2-PDC patient-derived pancreatic carcinoma cell line growth inhibition
Conditions: for viability, T/C: stronger effect = lower value
How it was run: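 Multicellular complex spheroids of tumor cells with human endothelial cells (HUVEC) and mesenchymal stem cells; the LSD1 inhibitor iadademstat was combined with standard-of-care or investigational agents. Top concentration at or near clinical Cmax, half-log dilutions; final DMSO ≤0.25%.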

[1] = curve of first compound, second compound 0.1 µM
[2] = curve of first compound, second compound 0.316 µM
[3] = curve of first compound, second compound 1 µM
[4] = curve of first compound, second compound 3.16 µM
[5] = curve of first compound, second compound 10 µM
[6] = second compound 0.1 µM, first compound 0.0316 µM
[7] = second compound 0.1 µM, first compound 0.1 µM
[8] = second compound 0.316 µM, first compound 0.0316 µM
[9] = second compound 0.316 µM, first compound 0.1 µM
[10] = second compound 1 µM, first compound 0.0316 µM
[11] = second compound 1 µM, first compound 0.1 µM
[12] = second compound 3.16 µM, first compound 0.0316 µM
[13] = second compound 3.16 µM, first compound 0.1 µM
[14] = second compound 10 µM, first compound 0.0316 µM
[15] = second compound 10 µM, first compound 0.1 µM
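Also: seven day compound exposure before luminescent viability read.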
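For viability, T/C in this document: 100% = DMSO vehicle control wells.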

Which IC50 [1] does the source give for `CC(C)CC(NC(=O)CNC(=O)c1cc(Cl)ccc1Cl)B1OC(=O)CC(CC(=O)O)(C(=O)O)O1` (stereo not drawn) + NC1CC1c1ccc(-c2cccc(O)c2)cc1 here?
The IC50 was 5.69 nM.

And the IC50 [2]?
The IC50 was 5.54 nM.

And the IC50 [3]?
The IC50 was 4.78 nM.

And the IC50 [4]?
The IC50 was 4.64 nM.

What about the IC50 [5] of the same molecule?
The IC50 was 3.67 nM.

What about the viability, T/C (second compound 0.1 µM, first compound 0.000316 µM) of the same molecule?
The viability, T/C was 88.2%.

And the viability, T/C (second compound 0.1 µM, first compound 0.001 µM)?
Its viability, T/C is 93.4%.

And the viability, T/C (second compound 0.1 µM, first compound 0.00316 µM)?
Its viability, T/C is 81.5%.

And the viability, T/C (second compound 0.1 µM, first compound 0.01 µM)?
Its viability, T/C is 19.6%.

What about the viability, T/C [6] of the same molecule?
Its viability, T/C is 3.61%.

And the viability, T/C [7]?
The viability, T/C was 1.34%.

What about the viability, T/C (second compound 0.316 µM, first compound 0.000316 µM) of the same molecule?
Its viability, T/C is 80%.

What about the viability, T/C (second compound 0.316 µM, first compound 0.001 µM) of the same molecule?
Its viability, T/C is 84.3%.

What about the viability, T/C (second compound 0.316 µM, first compound 0.00316 µM) of the same molecule?
The viability, T/C was 80.4%.

What about the viability, T/C (second compound 0.316 µM, first compound 0.01 µM) of the same molecule?
The viability, T/C was 17.9%.

What about the viability, T/C [8] of the same molecule?
The viability, T/C was 3.08%.

And the viability, T/C [9]?
Its viability, T/C is 1.87%.

What about the viability, T/C (second compound 1 µM, first compound 0.000316 µM) of the same molecule?
Its viability, T/C is 66.2%.

And the viability, T/C (second compound 1 µM, first compound 0.001 µM)?
The viability, T/C was 74%.

What about the viability, T/C (second compound 1 µM, first compound 0.00316 µM) of the same molecule?
The viability, T/C was 68.2%.

What about the viability, T/C (second compound 1 µM, first compound 0.01 µM) of the same molecule?
Its viability, T/C is 17.2%.

What about the viability, T/C [10] of the same molecule?
The viability, T/C was 3.17%.

What about the viability, T/C [11] of the same molecule?
Its viability, T/C is 1.85%.

And the viability, T/C (second compound 3.16 µM, first compound 0.000316 µM)?
Its viability, T/C is 70.7%.

And the viability, T/C (second compound 3.16 µM, first compound 0.001 µM)?
Its viability, T/C is 71.2%.

And the viability, T/C (second compound 3.16 µM, first compound 0.00316 µM)?
Its viability, T/C is 67.8%.

And the viability, T/C (second compound 3.16 µM, first compound 0.01 µM)?
The viability, T/C was 14.5%.

And the viability, T/C [12]?
The viability, T/C was 2.89%.

What about the viability, T/C [13] of the same molecule?
Its viability, T/C is 1.44%.

And the viability, T/C (second compound 10 µM, first compound 0.000316 µM)?
The viability, T/C was 61.6%.

And the viability, T/C (second compound 10 µM, first compound 0.001 µM)?
Its viability, T/C is 67.1%.

And the viability, T/C (second compound 10 µM, first compound 0.00316 µM)?
The viability, T/C was 55.4%.

And the viability, T/C (second compound 10 µM, first compound 0.01 µM)?
Its viability, T/C is 11.8%.

What about the viability, T/C [14] of the same molecule?
The viability, T/C was 2.07%.

What about the viability, T/C [15] of the same molecule?
The viability, T/C was 0.75%.

`CCc1c2c(nc3ccc(O)cc13)-c1cc3c(c(=O)n1C2)COC(=O)[C@]3(O)CC` was tested. Which viability, T/C (compound 0.000949 µM) did it give?
The viability, T/C was 5.38% and 4.72%.

What about the viability, T/C (compound 0.003 µM) of the same molecule?
The viability, T/C was 3.5% and 2.75%.

And the viability, T/C (compound 0.00949 µM)?
Its viability, T/C is 1.25% and 1.31%.

And the viability, T/C (compound 0.03 µM)?
Its viability, T/C is 0.84% and 1.16%.

And the viability, T/C (compound 0.0949 µM)?
The viability, T/C was 1.07% and 1.04%.

And the viability, T/C (compound 0.3 µM)?
Its viability, T/C is 0.92% and 1.24%.

What about the IC50 (curve of compound) of the same molecule?
Its IC50 is < 0.949 nM.

`COc1cc(C2c3cc4c(cc3C(OC3OC5COC(C)OC5C(O)C3O)C3COC(=O)C23)OCO4)cc(OC)c1O` (stereo not drawn) was tested. Which viability, T/C (compound 0.00949 µM) did it give?
The viability, T/C was 91.1% and 92%.

What about the viability, T/C (compound 0.03 µM) of the same molecule?
The viability, T/C was 57.8% and 69.4%.

And the viability, T/C (compound 0.0949 µM)?
The viability, T/C was 26.8% and 28.4%.

And the viability, T/C (compound 0.3 µM)?
The viability, T/C was 17.8% and 16.7%.

What about the viability, T/C (compound 0.949 µM) of the same molecule?
Its viability, T/C is 8.57% and 7.24%.

And the viability, T/C (compound 3 µM)?
Its viability, T/C is 5.06% and 4.06%.

What about the IC50 (curve of compound) of the same molecule?
Its IC50 is 39.7 nM and 52.7 nM.

With `CC(C)CC(NC(=O)C(Cc1ccccc1)NC(=O)c1cnccn1)B(O)O` (stereo not drawn) as the molecule, how does the viability, T/C (compound 0.000316 µM) read?
The viability, T/C was 18.8% and 20.7%.

And the viability, T/C (compound 0.001 µM)?
Its viability, T/C is 0.9% and 1.54%.

What about the viability, T/C (compound 0.00316 µM) of the same molecule?
The viability, T/C was 0.34% and 1.04%.

And the viability, T/C (compound 0.01 µM)?
Its viability, T/C is 0.42% and 0.8%.

And the viability, T/C (compound 0.0316 µM)?
The viability, T/C was 0.19% and 0.21%.

What about the viability, T/C (compound 0.1 µM) of the same molecule?
Its viability, T/C is 0.21%.

What about the IC50 (curve of compound) of the same molecule?
Its IC50 is < 0.316 nM.

How did the viability, T/C (compound 0.00949 µM) turn out when `CCN(c1cc(-c2ccc(CN3CCOCC3)cc2)cc(C(=O)NCc2c(C)cc(C)[nH]c2=O)c1C)C1CCOCC1` was run?
Its viability, T/C is 100% and 99.5%.

What about the viability, T/C (compound 0.03 µM) of the same molecule?
The viability, T/C was 115% and 103%.

And the viability, T/C (compound 0.0949 µM)?
Its viability, T/C is 99%.

What about the viability, T/C (compound 0.3 µM) of the same molecule?
The viability, T/C was 85.1% and 80.7%.

And the viability, T/C (compound 0.949 µM)?
The viability, T/C was 63.7% and 67.6%.

And the viability, T/C (compound 3 µM)?
The viability, T/C was 22.2% and 24.3%.

And the IC50 (curve of compound)?
Its IC50 is 1350 nM and 1460 nM.

With `CC(C)c1c(-c2ccccc2)nc2c(C#N)c[nH]n2c1=O` + NC1CCC(NC2CC2c2ccccc2)CC1 as the molecule, how does the IC50 [1] read?
Its IC50 is > 10000 nM.

And the IC50 [2]?
Its IC50 is > 10000 nM.

What about the IC50 [3] of the same molecule?
Its IC50 is > 10000 nM.

What about the IC50 [4] of the same molecule?
The IC50 was 9720 nM.

What about the IC50 [5] of the same molecule?
The IC50 was 1680 nM.

And the viability, T/C [6]?
Its viability, T/C is 63.4%.

And the viability, T/C [7]?
The viability, T/C was 67.2%.

What about the viability, T/C (second compound 0.1 µM, first compound 0.316 µM) of the same molecule?
Its viability, T/C is 59.7%.

And the viability, T/C (second compound 0.1 µM, first compound 1 µM)?
Its viability, T/C is 70%.

And the viability, T/C (second compound 0.1 µM, first compound 3.16 µM)?
The viability, T/C was 61.1%.

And the viability, T/C (second compound 0.1 µM, first compound 10 µM)?
The viability, T/C was 57%.

And the viability, T/C [8]?
The viability, T/C was 63.1%.

What about the viability, T/C [9] of the same molecule?
Its viability, T/C is 60.1%.

What about the viability, T/C (second compound 0.316 µM, first compound 0.316 µM) of the same molecule?
Its viability, T/C is 63.6%.

What about the viability, T/C (second compound 0.316 µM, first compound 1 µM) of the same molecule?
Its viability, T/C is 64.2%.

What about the viability, T/C (second compound 0.316 µM, first compound 3.16 µM) of the same molecule?
Its viability, T/C is 64.2%.

And the viability, T/C (second compound 0.316 µM, first compound 10 µM)?
Its viability, T/C is 51.3%.

What about the viability, T/C [10] of the same molecule?
Its viability, T/C is 52.7%.

What about the viability, T/C [11] of the same molecule?
The viability, T/C was 55.4%.

What about the viability, T/C (second compound 1 µM, first compound 0.316 µM) of the same molecule?
The viability, T/C was 54.2%.

What about the viability, T/C (second compound 1 µM, first compound 1 µM) of the same molecule?
The viability, T/C was 57.5%.

What about the viability, T/C (second compound 1 µM, first compound 3.16 µM) of the same molecule?
The viability, T/C was 57.4%.

What about the viability, T/C (second compound 1 µM, first compound 10 µM) of the same molecule?
The viability, T/C was 51.6%.

What about the viability, T/C [12] of the same molecule?
Its viability, T/C is 55.7%.

What about the viability, T/C [13] of the same molecule?
Its viability, T/C is 55.3%.

What about the viability, T/C (second compound 3.16 µM, first compound 0.316 µM) of the same molecule?
Its viability, T/C is 52.8%.

And the viability, T/C (second compound 3.16 µM, first compound 1 µM)?
The viability, T/C was 56.1%.

What about the viability, T/C (second compound 3.16 µM, first compound 3.16 µM) of the same molecule?
The viability, T/C was 49%.

And the viability, T/C (second compound 3.16 µM, first compound 10 µM)?
The viability, T/C was 49.9%.

What about the viability, T/C [14] of the same molecule?
The viability, T/C was 52.9%.

And the viability, T/C [15]?
The viability, T/C was 53.8%.

What about the viability, T/C (second compound 10 µM, first compound 0.316 µM) of the same molecule?
Its viability, T/C is 53.2%.

And the viability, T/C (second compound 10 µM, first compound 1 µM)?
The viability, T/C was 54.6%.

What about the viability, T/C (second compound 10 µM, first compound 3.16 µM) of the same molecule?
Its viability, T/C is 45.6%.

And the viability, T/C (second compound 10 µM, first compound 10 µM)?
Its viability, T/C is 40%.

Reference: PubChem BioAssay AID1918934 (Molecular Pharmacology Branch, DTP, NCI, 2023)
